Experimental data published in ChEMBL document CHEMBL1201862, “PubChem BioAssay data set” (2004).
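Method: 48-hour compound exposure of cells in 96-well plates, five concentrations, linear interpolation of endpoints. The concentration for 50% growth inhibition is given as GI50.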 The source made the active and inactive calls. Rule as the data show it: active = GI50 up to about 1.1 µM and inactive = higher.

Columns and labels:
Assay in all cases: NCI-60 cell line screen, 48 h
[1] = test system: CCRF-CEM
[2] = test system: EKVX
[3] = test system: HCT-15
[4] = test system: K562
[5] = test system: MDA-MB-435
[6] = test system: MOLT-4
[7] = test system: NCI-H226
[8] = test system: NCI-H23
[9] = test system: OVCAR-3
[10] = test system: OVCAR-8
[11] = test system: SF-268
[12] = test system: SK-MEL-2
[13] = test system: SN12C
[14] = test system: SR
[15] = test system: TK-10
[16] = test system: U-251
[17] = test system: UO-31
[18] = test system: SK-MEL-5
[19] = test system: SK-OV-3
[20] = test system: UACC-62

Structure (SMILES): O=C(c1ccccc1)N1N=C(C(F)(F)F)CC1(O)C(F)(F)F (centres undefined)
- GI50 [1]: > 100 µM (inactive)
- GI50 [2]: > 100 µM (inactive)
- GI50 [3]: > 100 µM
- GI50 [4]: > 100 µM (inactive)
- GI50 [5]: > 100 µM (inactive)
- GI50 [6]: > 100 µM (inactive)
- GI50 [7]: > 100 µM (inactive)
- GI50 [8]: > 100 µM (inactive)
- GI50 [9]: > 100 µM (inactive)
- GI50 [10]: > 100 µM (inactive)
- GI50 [11]: > 100 µM (inactive)
- GI50 [12]: > 100 µM (inactive)
- GI50 [13]: > 100 µM (inactive)
- GI50 [14]: > 100 µM (inactive)
- GI50 [15]: > 100 µM (inactive)
- GI50 [16]: > 100 µM (inactive)
- GI50 [17]: > 100 µM (inactive)

Structure (SMILES): Sc1nnc(CCCCCCCCc2nnc(S)o2)o1
- GI50 [1]: > 100 µM (inactive)
- GI50 [2]: > 100 µM (inactive)
- GI50 [3]: > 100 µM
- GI50 [4]: > 100 µM (inactive)
- GI50 [5]: > 100 µM (inactive)
- GI50 [6]: > 100 µM (inactive)
- GI50 [7]: > 100 µM (inactive)
- GI50 [8]: > 100 µM (inactive)
- GI50 [9]: > 100 µM (inactive)
- GI50 [10]: > 100 µM (inactive)
- GI50 [11]: > 100 µM (inactive)
- GI50 [12]: > 100 µM (inactive)
- GI50 [18]: > 100 µM (inactive)
- GI50 [19]: > 100 µM (inactive)
- GI50 [13]: > 100 µM (inactive)
- GI50 [15]: > 100 µM (inactive)
- GI50 [16]: > 100 µM (inactive)
- GI50 [17]: > 100 µM (inactive)

Structure (SMILES): CCOC(=O)C(O)(NC(=O)Nc1ccc(F)cc1)C(F)(F)F (centres undefined)
- GI50 [1]: > 100 µM (inactive)
- GI50 [2]: > 100 µM (inactive)
- GI50 [3]: > 100 µM
- GI50 [4]: > 100 µM (inactive)
- GI50 [5]: > 100 µM (inactive)
- GI50 [6]: > 100 µM (inactive)
- GI50 [8]: > 100 µM (inactive)
- GI50 [10]: > 100 µM (inactive)
- GI50 [11]: > 100 µM (inactive)
- GI50 [12]: > 100 µM (inactive)
- GI50 [18]: > 100 µM (inactive)
- GI50 [19]: > 100 µM (inactive)
- GI50 [13]: > 100 µM (inactive)
- GI50 [14]: > 100 µM (inactive)
- GI50 [15]: > 100 µM (inactive)
- GI50 [16]: > 100 µM (inactive)
- GI50 [17]: > 100 µM (inactive)

Structure (SMILES): O=c1cn[nH]c(=S)n1/N=C/c1c[nH]c2ccccc12
- GI50 [1]: 11.3 µM (inactive)
- GI50 [2]: > 100 µM (inactive)
- GI50 [3]: 31.4 µM
- GI50 [4]: 48 µM (inactive)
- GI50 [5]: 58.5 µM (inactive)
- GI50 [6]: 37.6 µM (inactive)
- GI50 [9]: > 100 µM (inactive)
- GI50 [10]: 32.8 µM (inactive)
- GI50 [11]: > 100 µM (inactive)
- GI50 [12]: > 100 µM (inactive)
- GI50 [18]: > 100 µM (inactive)
- GI50 [19]: > 100 µM (inactive)
- GI50 [14]: 45.3 µM (inactive)
- GI50 [16]: > 100 µM (inactive)
- GI50 [20]: 78.7 µM (inactive)
- GI50 [17]: > 100 µM (inactive)

Structure (SMILES): CC(=NNC(=S)Nc1ccccc1)c1cccc(C(C)=NNC(=S)Nc2ccccc2)n1
- GI50 [1]: 1.74 µM (inactive)
- GI50 [2]: 6.98 µM (inactive)
- GI50 [3]: 4.58 µM
- GI50 [4]: 3.04 µM (inactive)
- GI50 [5]: 8.32 µM (inactive)
- GI50 [6]: 2.29 µM (inactive)
- GI50 [7]: 1.06 µM (active)
- GI50 [8]: 7.46 µM (inactive)
- GI50 [9]: 1.38 µM (inactive)
- GI50 [10]: 0.968 µM (active)
- GI50 [12]: 41.1 µM (inactive)
- GI50 [18]: 2.64 µM (inactive)
- GI50 [19]: 5.98 µM (inactive)
- GI50 [13]: 4.48 µM (inactive)
- GI50 [15]: 4.24 µM (inactive)
- GI50 [16]: 4.99 µM (inactive)
- GI50 [20]: 2.43 µM (inactive)
- GI50 [17]: 2.34 µM (inactive)

Structure (SMILES): CCCCc1c(C(=O)OC(C)(C)C)cc(C#Cc2cc(C(=O)OC(C)(C)C)c(CCCC)c(C(=O)OC(C)(C)C)c2)cc1C(=O)OC(C)(C)C
- GI50 [2]: > 100 µM (inactive)
- GI50 [3]: > 100 µM
- GI50 [5]: > 100 µM (inactive)
- GI50 [7]: > 100 µM (inactive)
- GI50 [8]: > 100 µM (inactive)
- GI50 [9]: > 100 µM (inactive)
- GI50 [11]: > 100 µM (inactive)
- GI50 [12]: > 100 µM (inactive)
- GI50 [18]: > 100 µM (inactive)
- GI50 [19]: > 100 µM (inactive)
- GI50 [13]: > 100 µM (inactive)
- GI50 [15]: > 100 µM (inactive)
- GI50 [16]: > 100 µM (inactive)
- GI50 [20]: > 100 µM (inactive)
- GI50 [17]: > 100 µM (inactive)

Structure (SMILES): COc1ncc(C#CC(=O)c2ccccc2)c(OC)n1
- GI50 [1]: 0.183 µM (active)
- GI50 [2]: 3.51 µM (inactive)
- GI50 [3]: 1.37 µM
- GI50 [4]: 0.726 µM (active)
- GI50 [5]: 3.91 µM (inactive)
- GI50 [6]: 0.679 µM (active)
- GI50 [7]: 2.07 µM (inactive)
- GI50 [8]: 4.33 µM (inactive)
- GI50 [9]: 5.11 µM (inactive)
- GI50 [10]: 2.78 µM (inactive)
- GI50 [11]: 10.4 µM (inactive)
- GI50 [12]: 5.07 µM (inactive)
- GI50 [18]: 2.09 µM (inactive)
- GI50 [19]: 19.7 µM (inactive)
- GI50 [13]: 1.4 µM (inactive)
- GI50 [15]: 1.67 µM (inactive)
- GI50 [16]: 4.71 µM (inactive)
- GI50 [20]: 4.03 µM (inactive)
- GI50 [17]: 2.03 µM (inactive)

Structure (SMILES): Cc1ccccc1NC(=O)/C(C#N)=N\Nc1[nH]cnc1C(N)=O
- GI50 [1]: 2.96 µM (inactive)
- GI50 [2]: 66.8 µM (inactive)
- GI50 [3]: 19.3 µM
- GI50 [4]: 1.89 µM (inactive)
- GI50 [5]: 4.68 µM (inactive)
- GI50 [6]: 2.88 µM (inactive)
- GI50 [7]: 41.4 µM (inactive)
- GI50 [8]: 32.6 µM (inactive)
- GI50 [9]: 2.42 µM (inactive)
- GI50 [10]: 1.51 µM (inactive)
- GI50 [11]: 4.11 µM (inactive)
- GI50 [12]: 1.18 µM (inactive)
- GI50 [18]: 35.3 µM (inactive)
- GI50 [19]: 1.59 µM (inactive)
- GI50 [13]: 5 µM (inactive)
- GI50 [15]: 3.08 µM (inactive)
- GI50 [16]: 37.1 µM (inactive)
- GI50 [20]: 12.9 µM (inactive)
- GI50 [17]: 1.62 µM (inactive)
